ChEMBL document CHEMBL1201862, “PubChem BioAssay data set” (2004)
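Results reflect a 48-hour exposure of cells in 96-well plates to compound at five concentrations. GI50 marks 50% less growth.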 Activity calls are given as the source filed them. Rule as the data show it: active = GI50 up to about 1.1 µM and inactive = higher.

Key:
Experiment in all cases: NCI anticancer screen, dose series, 48 h
Hs-578T = system: Hs-578T
IGROV-1 = system: IGROV-1
NCI-H460 = system: NCI-H460
SF-268 = system: SF-268
SF-539 = system: SF-539
TK-10 = system: TK-10
CCRF-CEM = system: CCRF-CEM
SK-OV-3 = system: SK-OV-3
COLO 205 = system: COLO 205
MDA-N = system: MDA-N
MDA-MB-435 = system: MDA-MB-435
HCT-15 = system: HCT-15
Malme-3M = system: Malme-3M
HOP-62 = system: HOP-62
PC-3 = system: PC-3
SN12C = system: SN12C
BT-549 = system: BT-549
UACC-62 = system: UACC-62
RPMI-8226 = system: RPMI-8226
NCI-H23 = system: NCI-H23

SMILES	GI50 (Hs-578T)	GI50 (IGROV-1)	GI50 (NCI-H460)	GI50 (SF-268)	GI50 (SF-539)	GI50 (TK-10)	GI50 (CCRF-CEM)	GI50 (SK-OV-3)	GI50 (COLO 205)	GI50 (MDA-N)	GI50 (MDA-MB-435)	GI50 (HCT-15) [µM]	GI50 (Malme-3M)	GI50 (HOP-62)	GI50 (PC-3)	GI50 (SN12C)	GI50 (BT-549)	GI50 (UACC-62)	GI50 (RPMI-8226)	GI50 (NCI-H23)
COc1ccc(C(=O)c2ccc(-n3cc(/C=C/[N+](=O)[O-])c4ccccc43)cc2)cc1	7.57 µM (inactive)	10.8 µM (inactive)	35.9 µM (inactive)	18 µM (inactive)	14.7 µM (inactive)	6.3 µM (inactive)	2.58 µM (inactive)	23.6 µM (inactive)	32.3 µM (inactive)	22.8 µM (inactive)	16.2 µM (inactive)	7	20.2 µM (inactive)	16.1 µM (inactive)	18.8 µM (inactive)	16.8 µM (inactive)	15.5 µM (inactive)	14.4 µM (inactive)	3.08 µM (inactive)	20.1 µM (inactive)
O=C(Cc1nc2ccccc2[nH]c1=O)c1c[nH]c2ccccc12	49 µM (inactive)	20.3 µM (inactive)	6.58 µM (inactive)	> 100 µM (inactive)	19.2 µM (inactive)	7.57 µM (inactive)	4.3 µM (inactive)	18.1 µM (inactive)	11.1 µM (inactive)	12.1 µM (inactive)	13.7 µM (inactive)	8.18	32.9 µM (inactive)	21 µM (inactive)	10.5 µM (inactive)	13.8 µM (inactive)	12.2 µM (inactive)	13.6 µM (inactive)	6.92 µM (inactive)	20.4 µM (inactive)
Cc1cc(NC(=O)NC(=O)c2ccccc2N(C)C)ccc1Oc1ncc(Br)cn1	0.267 µM (active)	1.46 µM (inactive)	0.403 µM (active)	0.977 µM (active)	0.267 µM (active)	4.51 µM (inactive)	0.237 µM (active)	0.437 µM (active)	0.78 µM (active)	0.0302 µM (active)	0.0424 µM (active)	0.202	0.425 µM (active)	0.659 µM (active)	0.333 µM (active)	1.74 µM (inactive)	0.731 µM (active)	0.301 µM (active)	0.451 µM (active)	1.17 µM (inactive)
C=C(C(=O)OCC)C(=O)OCC	> 100 µM (inactive)	> 100 µM (inactive)	> 100 µM (inactive)	> 100 µM (inactive)	> 100 µM (inactive)	> 100 µM (inactive)	> 100 µM (inactive)	> 100 µM (inactive)	> 100 µM (inactive)	> 100 µM (inactive)	> 100 µM (inactive)	> 100	> 100 µM (inactive)	> 100 µM (inactive)	> 100 µM (inactive)	> 100 µM (inactive)	> 100 µM (inactive)	> 100 µM (inactive)	> 100 µM (inactive)	> 100 µM (inactive)
CC(=O)/C=N/CC(=O)O	> 100 µM (inactive)	> 100 µM (inactive)	> 100 µM (inactive)	> 100 µM (inactive)	> 100 µM (inactive)	> 100 µM (inactive)	> 100 µM (inactive)	> 100 µM (inactive)	> 100 µM (inactive)	> 100 µM (inactive)	> 100 µM (inactive)	> 100	> 100 µM (inactive)	> 100 µM (inactive)	> 100 µM (inactive)	> 100 µM (inactive)	> 100 µM (inactive)	> 100 µM (inactive)	> 100 µM (inactive)	> 100 µM (inactive)
O=C1c2ccccc2-c2cc([N+](=O)[O-])c([N+](=O)[O-])cc21	3.78 µM (inactive)	1.49 µM (inactive)	1.51 µM (inactive)	2.18 µM (inactive)	0.485 µM (active)	1.48 µM (inactive)	0.243 µM (active)	2.66 µM (inactive)	2.11 µM (inactive)	2.35 µM (inactive)	1.65 µM (inactive)	1.78	1.91 µM (inactive)	1.58 µM (inactive)	1.55 µM (inactive)	1.86 µM (inactive)	1.92 µM (inactive)	1.66 µM (inactive)	1.04 µM (active)	1.91 µM (inactive)
O=C(O)c1cc2ccccc2c(S(=O)(=O)O)c1O	> 100 µM (inactive)	> 100 µM (inactive)	> 100 µM (inactive)	> 100 µM (inactive)	> 100 µM (inactive)	> 100 µM (inactive)	> 100 µM (inactive)	> 100 µM (inactive)	> 100 µM (inactive)	> 100 µM (inactive)	> 100 µM (inactive)	> 100	> 100 µM (inactive)	> 100 µM (inactive)	> 100 µM (inactive)	> 100 µM (inactive)	> 100 µM (inactive)	> 100 µM (inactive)	> 100 µM (inactive)	> 100 µM (inactive)
CCC(C)NC(=S)N/N=C(\C)c1nc2cccnc2[nH]1 (stereo not given)	19.3 µM (inactive)	12.2 µM (inactive)	10 µM (inactive)	8.36 µM (inactive)	21.7 µM (inactive)	12.3 µM (inactive)	3.09 µM (inactive)	10.3 µM (inactive)	3.54 µM (inactive)	47.4 µM (inactive)	31.3 µM (inactive)	5.64	6.73 µM (inactive)	7.78 µM (inactive)	8.85 µM (inactive)	21.6 µM (inactive)	13.5 µM (inactive)	6.11 µM (inactive)	21.6 µM (inactive)	41.6 µM (inactive)
CC(=O)OC12CC(C)C3(O)C4C=C(C)C(=O)[C@@]4(O)CC(CO)=C[C@H]3C1C2(C)C (stereo not given in full)	0.82 µM (active)	> 10 µM (inactive)	> 100 µM (inactive)	> 10 µM (inactive)	> 10 µM (inactive)	2.34 µM (inactive)	> 1000 µM (inactive)	794 µM (inactive)	1.88 µM (inactive)	2.69 µM (inactive)	3.67 µM (inactive)	> 10	> 10 µM (inactive)	> 100 µM (inactive)	> 1000 µM (inactive)	> 100 µM (inactive)	> 10 µM (inactive)	771 µM (inactive)	> 10 µM (inactive)	> 10 µM (inactive)
O=C(Nc1ccc2ncccc2c1)Nc1ccc2ncccc2c1	> 100 µM (inactive)	> 100 µM (inactive)	> 100 µM (inactive)	> 100 µM (inactive)	> 100 µM (inactive)	> 100 µM (inactive)	> 100 µM (inactive)	> 100 µM (inactive)	> 100 µM (inactive)	> 100 µM (inactive)	> 100 µM (inactive)	> 100	> 100 µM (inactive)	> 100 µM (inactive)	> 100 µM (inactive)	> 100 µM (inactive)	> 100 µM (inactive)	> 100 µM (inactive)	> 100 µM (inactive)	> 100 µM (inactive)
Cc1ccc2c(=O)c3c(O)c4c(cc3n(C)c2c1)OC(C)(C)C=C4	> 10 µM (inactive)	> 10 µM (inactive)	> 10 µM (inactive)	> 10 µM (inactive)	> 10 µM (inactive)	> 10 µM (inactive)	> 10 µM (inactive)	> 10 µM (inactive)	> 10 µM (inactive)	> 10 µM (inactive)	> 10 µM (inactive)	> 10	> 10 µM (inactive)	> 10 µM (inactive)	> 10 µM (inactive)	> 10 µM (inactive)	> 10 µM (inactive)	> 10 µM (inactive)	> 10 µM (inactive)	> 10 µM (inactive)
COc1cc(OC)c2c(c1-c1ccc(C)cc1)CC(C)N(Cc1ccccc1)[C@H]2C (stereo not given in full)	12.7 µM (inactive)	80.4 µM (inactive)	37.7 µM (inactive)	31.3 µM (inactive)	32.1 µM (inactive)	38.3 µM (inactive)	7.76 µM (inactive)	31.8 µM (inactive)	32.3 µM (inactive)	33.7 µM (inactive)	33.3 µM (inactive)	35.9	19.3 µM (inactive)	59 µM (inactive)	36.1 µM (inactive)	35.9 µM (inactive)	28.2 µM (inactive)	39.1 µM (inactive)	13.5 µM (inactive)	35 µM (inactive)
CCC(C)C(N)C(=O)N/N=C\c1c2c(nc3ccccc13)-c1cc3c(c(=O)n1C2)COC(=O)[C@]3(O)CC (stereo not given in full)	1.82 µM (inactive)	0.832 µM (active)	< 0.0134 µM (active)	< 0.01 µM (active)	< 0.01 µM (active)	4.02 µM (inactive)	< 0.01 µM (active)	0.0528 µM (active)	2.95 µM (inactive)	0.46 µM (active)	0.468 µM (active)	0.356	0.438 µM (active)	0.0113 µM (active)	0.387 µM (active)	0.0155 µM (active)	0.174 µM (active)	< 0.01 µM (active)	0.142 µM (active)	0.0112 µM (active)
COc1ccccc1NC(=S)N/N=C/c1cccc(C)n1	11.5 µM (inactive)	4.06 µM (inactive)	2.49 µM (inactive)	6.97 µM (inactive)	4.89 µM (inactive)	8.99 µM (inactive)	0.422 µM (active)	6.55 µM (inactive)	1.68 µM (inactive)	4.17 µM (inactive)	5.16 µM (inactive)	2.31	6.24 µM (inactive)	5.85 µM (inactive)	4.5 µM (inactive)	7.1 µM (inactive)	15.1 µM (inactive)	3.67 µM (inactive)	2.11 µM (inactive)	5.83 µM (inactive)
